Measurements: US11732017B2, “HLA-A24 agonist epitopes of MUC1-C oncoprotein and compositions and methods of use” (The USA, as represented by the Secretary, Dept. of Health …, priority 2013, dated 2023)

How the values were obtained:
Format in all cases: cell-based, human
[1] = tested on: PBMCs from vaccinated cancer patients; experiment: Establishment of T-cell lines with peptide-pulsed APCs
Source text: Patients-PBMCs were used from two patients with prostate cancer enrolled in a previously described clinical trial of PSA-TRICOM vaccine in combination with […] al., Lancet Oncol., 13: 501-8 (2012)). An institutional review board of the National Institutes of Health (NIH) Clinical Center had approved the procedures, and informed consent was obtained in accordance with the Declaration of Helsinki. […] Cells were restimulated every 7 days.

[2] = tested on: T-C6A T-cell line; experiment: Detection of cytokines, T-cell line generated with C6A
Protocol: (§1) Cells were restimulated every 7 days.
Detection of cytokines—Autologous B cells pulsed with peptides at different concentrations (25, 12.5, 6.25 and 3, 13, and 1.56 μg/ml) were incubated with MUC1-specific T-cell lines at a 2:1 ratio for 24 hours.

[3] = tested on: T-C7A T-cell line; experiment: Detection of cytokines, T-cell line generated with agonist C7A; conditions: 24 hours with peptide-pulsed B-cells
Protocol: as §1
(§2) Detection of cytokines—Autologous B cells pulsed with peptides at different concentrations (25, 12.5, 6.25 and 3, 13, and 1.56 μg/ml) were incubated with MUC1-specific T-cell lines at a 2:1 ratio for 24 hours. The supernatants were analyzed for IFN-γ by ELISA (Invitrogen, Frederick, Md.).
(§3) Each cell line was then stimulated for 24 hours with B-cells pulsed with either the native C7 or agonist C7A peptide, and cytokine levels in the supernatant were analyzed.

[4] = tested on: T-C7 T-cell line; experiment: Detection of cytokines, T-cell line generated with native C7; conditions: 24 hours with peptide-pulsed B-cells
Protocol: as §1, §2, §3

[5] = T-cell line T-C6A stimulated with peptide
[6] = stimulation of the T-cell line generated with C6A

With KYHPMSEYAL [Peptide C6A] as the sequence, how does the “generation of T-cell lines using APCs pulsed with the peptide” value (from here on “generation of T-cell lines”) [1] read?
Its value is “could be generated”.

And the GM-CSF [2, 5]?
Its GM-CSF is 1277 pg/mL/2.5 × 10^5 T cells.

And the IFN-γ [2, 5]?
Its IFN-γ is 3060 pg/mL/2.5 × 10^5 T cells.

And the IL-2 [2, 5]?
The IL-2 was 3630 pg/mL/2.5 × 10^5 T cells.

What about the IL-6 [2, 5] of the same sequence?
Its IL-6 is 7.6 pg/mL/2.5 × 10^5 T cells.

What about the IL-8 [2, 5] of the same sequence?
The IL-8 was 11.8 pg/mL/2.5 × 10^5 T cells.

And the IL-10 [2, 5]?
Its IL-10 is 16.4 pg/mL/2.5 × 10^5 T cells.

And the TNFα [2, 5]?
Its TNFα is 1021 pg/mL/2.5 × 10^5 T cells.

What about the GM-CSF level [2, 6] of the same sequence?
The GM-CSF level was > 10,000 pg/mL/10^5 cells.

What about the IFN-γ level [2, 6] of the same sequence?
Its IFN-γ level is 2,651 pg/mL/10^5 cells.

What about the IL-2 level [2, 6] of the same sequence?
The IL-2 level was under 50 pg/mL/10^5 cells.

What about the IL-6 level [2, 6] of the same sequence?
Its IL-6 level is under 50 pg/mL/10^5 cells.

What about the IL-8 level [2, 6] of the same sequence?
Its IL-8 level is > 10,000 pg/mL/10^5 cells.

What about the IL-10 level [2, 6] of the same sequence?
The IL-10 level was under 50 pg/mL/10^5 cells.

And the IL-12 level [2, 6]?
Its IL-12 level is under 50 pg/mL/10^5 cells.

What about the TNF-α level [2, 6] of the same sequence?
Its TNF-α level is 372 pg/mL/10^5 cells.

Which “generation of T-cell lines” value [1] does the source give for KYTNPAVAL [Peptide C7A] here?
Its value is “could be generated”.

And the GM-CSF [3]?
Its GM-CSF is 910 pg/mL/2.5 × 10^5 T cells.

What about the IFN-γ [3] of the same sequence?
The IFN-γ was 2000 pg/mL/2.5 × 10^5 T cells.

And the IL-2 [3]?
The IL-2 was under 2.4 pg/mL/2.5 × 10^5 T cells.

What about the IL-6 [3] of the same sequence?
Its IL-6 is 40 pg/mL/2.5 × 10^5 T cells.

And the IL-8 [3]?
The IL-8 was 360 pg/mL/2.5 × 10^5 T cells.

What about the IL-10 [3] of the same sequence?
The IL-10 was 375 pg/mL/2.5 × 10^5 T cells.

And the TNFα [3]?
The TNFα was 70 pg/mL/2.5 × 10^5 T cells.

And the GM-CSF [4]?
Its GM-CSF is 300 pg/mL/2.5 × 10^5 T cells.

What about the IFN-γ [4] of the same sequence?
The IFN-γ was 1279 pg/mL/2.5 × 10^5 T cells.

And the IL-2 [4]?
Its IL-2 is under 2.4 pg/mL/2.5 × 10^5 T cells.

What about the IL-6 [4] of the same sequence?
Its IL-6 is 7.7 pg/mL/2.5 × 10^5 T cells.

What about the IL-8 [4] of the same sequence?
The IL-8 was 7.3 pg/mL/2.5 × 10^5 T cells.

What about the IL-10 [4] of the same sequence?
Its IL-10 is 45 pg/mL/2.5 × 10^5 T cells.

And the TNFα [4]?
The TNFα was 30 pg/mL/2.5 × 10^5 T cells.

For “SYTNPAVAA [Peptide C7, native MUC1-C HLA-A24 peptide, position 502-510, reference compound]”, which “generation of T-cell lines” value [1] is on record?
The value was “could be generated”.

What about the GM-CSF [3] of the same sequence?
The GM-CSF was 215 pg/mL/2.5 × 10^5 T cells.

And the IFN-γ [3]?
The IFN-γ was 680 pg/mL/2.5 × 10^5 T cells.

And the IL-2 [3]?
The IL-2 was under 2.4 pg/mL/2.5 × 10^5 T cells.

What about the IL-6 [3] of the same sequence?
Its IL-6 is under 2.4 pg/mL/2.5 × 10^5 T cells.

And the IL-8 [3]?
The IL-8 was 112 pg/mL/2.5 × 10^5 T cells.

What about the IL-10 [3] of the same sequence?
Its IL-10 is 92 pg/mL/2.5 × 10^5 T cells.

What about the TNFα [3] of the same sequence?
Its TNFα is 30 pg/mL/2.5 × 10^5 T cells.

And the GM-CSF [4]?
Its GM-CSF is 237 pg/mL/2.5 × 10^5 T cells.

What about the IFN-γ [4] of the same sequence?
Its IFN-γ is 750 pg/mL/2.5 × 10^5 T cells.

And the IL-2 [4]?
Its IL-2 is under 2.4 pg/mL/2.5 × 10^5 T cells.

And the IL-6 [4]?
Its IL-6 is 6.4 pg/mL/2.5 × 10^5 T cells.

And the IL-8 [4]?
The IL-8 was 6.8 pg/mL/2.5 × 10^5 T cells.

And the IL-10 [4]?
Its IL-10 is 25 pg/mL/2.5 × 10^5 T cells.

And the TNFα [4]?
Its TNFα is 21 pg/mL/2.5 × 10^5 T cells.

How did the “generation of T-cell lines” value [1] turn out when “TYHPMSEYPT [Peptide C6, native MUC1-C HLA-A24 peptide, position 462-471, reference compound]” was run?
The value was “unsuccessful”.
